Experimental data from patent US20140350081A1, “INSECT G-COUPLED RECEPTORS USEFUL AS TARGETS FOR INSECTICIDES AND COMPOUNDS AND REAGENTS IDENTIFIED USING THE SAME” (priority 2011, published 2014).
Like-named read-outs stand apart in the source and are kept apart here.

Tests used:
AaDOP2 [1] = target: T1, AaDOP2 (Aedes aegypti, UniProt H6D5H2); test: AaDOP2 agonist screen against the LOPAC1280 library; assay type: cell-based
Ae. aegypti L3 larvae [2] = details: 400 μM, three independent experiments
AaDOP2 [3] = target: T1, AaDOP2; test: HTRF cAMP accumulation concentration response assay (Cisbio Dynamic 2); assay type: cell-based; details: AaDOP2 expressing cells in the presence of dopamine; No Inhibition = <10% inhibition at 3 μM test compound; read-out: IC50 ± S.E.M. (nM), HTRF cAMP assay
Isdop2 = Isdop2 (Ixodes scapularis, UniProt A0ACM8DGL0); test: cell-based; details: for inhibition at 10 µM: read-out: % Inhibition (of response to dopamine), Isdop2 screen
Sequence of Isdop2 (A0ACM8DGL0 entry or part of it): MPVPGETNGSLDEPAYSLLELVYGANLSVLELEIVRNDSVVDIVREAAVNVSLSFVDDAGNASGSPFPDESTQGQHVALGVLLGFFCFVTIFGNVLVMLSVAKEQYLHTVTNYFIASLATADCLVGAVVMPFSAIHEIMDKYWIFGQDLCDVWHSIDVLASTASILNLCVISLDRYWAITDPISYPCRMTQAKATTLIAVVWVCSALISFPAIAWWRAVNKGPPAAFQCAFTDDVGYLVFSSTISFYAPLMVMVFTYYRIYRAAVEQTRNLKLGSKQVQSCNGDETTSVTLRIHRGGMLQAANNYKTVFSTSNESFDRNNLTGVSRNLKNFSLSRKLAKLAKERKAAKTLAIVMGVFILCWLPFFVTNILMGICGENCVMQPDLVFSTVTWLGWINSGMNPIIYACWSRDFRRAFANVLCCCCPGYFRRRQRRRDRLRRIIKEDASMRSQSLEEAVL

Ae. aegypti L3 larvae [4] = test: whole plant or invertebrate; details: Aedes aegypti
AaDOP2 [5] = target: T1, AaDOP2; test: LOPAC1280 antagonist screen in HEK-CRELuc-Aadop2 cells; assay type: cell-based; details: for % of the SCH23390 effect: 10 μM compound, 300 nM dopamine, quadruplicate; for % inhibition of DA activity (Aedes cell-based assay screen): LOPAC1280 screen hits
[6] = test system: adult male Blatella germanica; test: Cockroach contact assay (topical application); assay type: in vivo; details: 200 mM compound
Source text: (§1) A series of whole organism bioassays was developed to further evaluate the toxicity of chemistries to a range of agricultural, veterinary and public health pests and non-target insects (Tables 12 and 13). These assays are designed to rapidly explore the biological activity spectrum of chemistries as well as to facilitate initial investigations of the mode of action of insecticidal compounds. Briefly, assays were developed for the German cockroach (Blatella germanica, urban pest), termite (Reticulitermes flavipes; urban pest), lone star tick (Amblyomma americana; veterinary and public health pest), soybean aphid (Aphis glycines, agricultural pest) and honeybee (Apis mellifera; beneficial, non-target insect). The assays were designed to test the toxicity and speed of kill of multiple chemistries on contact. Each of these assays was performed as a single point dose experiment in triplicate using either topical application of compound to the ventral thorax ([…]; 50-80 μg effective dose depending on compound) as is the case for our cockroach and honeybee assays, or 10 second immersion in a solution of the compound diluted in water or DMSO:EtOH to a final concentration of 100 μM. The assays were conducted in 24-well plate format with mortality assessment following incubation at 22° C. as described above. Commercial insecticides were incorporated in these assays to provide a positive control and permit initial comparative analyses. Lead chemistries identified in our in vivo screen have been evaluated in the cockroach and termite assays.

[7] = test system: adult male Blatella germanica; test: Cockroach assay of Table 16 (title contact assay, text feeding assay); assay type: in vivo; details: 200 mM compound
Source text: as §1

[8] = 10 μM compound, percent of response to 1 μM dihydrexidine

T1 sequence (H6D5H2 entry or part of it): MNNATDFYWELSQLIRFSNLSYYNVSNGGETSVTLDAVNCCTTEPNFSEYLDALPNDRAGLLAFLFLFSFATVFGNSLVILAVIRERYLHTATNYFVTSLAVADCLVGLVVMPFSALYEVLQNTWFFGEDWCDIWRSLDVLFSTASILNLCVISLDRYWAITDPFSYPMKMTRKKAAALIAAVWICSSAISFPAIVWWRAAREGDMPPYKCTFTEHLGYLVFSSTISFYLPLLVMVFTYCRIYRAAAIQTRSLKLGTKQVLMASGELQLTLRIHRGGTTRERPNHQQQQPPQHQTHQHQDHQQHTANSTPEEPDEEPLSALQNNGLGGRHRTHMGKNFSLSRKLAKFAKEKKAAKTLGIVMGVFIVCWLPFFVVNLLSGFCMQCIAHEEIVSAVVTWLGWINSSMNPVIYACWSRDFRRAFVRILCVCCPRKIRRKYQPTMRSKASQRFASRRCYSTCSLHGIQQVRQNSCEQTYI

C[C@H]1C[C@H]2[C@@H]3CCC4=CC(=O)C=C[C@]4(C)[C@@]3(F)[C@@H](O)C[C@]2(C)[C@@]1(O)C(=O)CO [Betamethasone]
% of DHX (AaDOP2 [1]; [8]): 101%

CCNC(=O)[C@H]1O[C@@H](n2cnc3c(NCc4ccccc4)ncnc32)[C@@H](O)C1O (some centres unmarked) [N6-Benzyl-NECA]
% of DHX (AaDOP2 [1]; [8]): 36%

CNCCCN1c2ccccc2CCc2ccc(Cl)cc21 [Norclomipramine]
Toxicity to Aedes aegypti larvae (mortality) 24 hours (Ae. aegypti L3 larvae [2]): 40% | Toxicity to Aedes aegypti larvae (mortality) 48 hours (Ae. aegypti L3 larvae [2]): 63% | Toxicity to Aedes aegypti larvae (mortality) 72 hours (Ae. aegypti L3 larvae [2]): 70% | IC50 (AaDOP2 [3]): 670 ± 35 nM

CN(C)CCCN1c2ccccc2CCc2ccccc21 [Imipramine, 3-(10,11-dihydro-5H-dibenzo[b,f]azepin-5-yl)-N,N-dimethylpropan-1-amine]
inhibition at 10 µM (Isdop2): 70% | mortality at 400 µM (Ae. aegypti L3 larvae [4]; 24 h, read-out: Toxicity to Aedes aegypti larvae (mortality) 24 hours): 53% | mortality at 400 µM (Ae. aegypti L3 larvae [4]; 48 h, read-out: Toxicity to Aedes aegypti larvae (mortality) 48 hours): 63% | mortality at 400 µM (Ae. aegypti L3 larvae [4]; 72 h, read-out: Toxicity to Aedes aegypti larvae (mortality) 72 hours): 80% | IC50 (AaDOP2 [3]): 360 ± 30 nM | % of the SCH23390 effect (AaDOP2 [5]): 96% | % inhibition of DA activity (Aedes cell-based assay screen) (AaDOP2 [5]): 96%

Br.Oc1ccc(C2CNCc3sccc32)cc1O (centres unmarked) [SKF 89626]
% of DHX (AaDOP2 [1]; [8]): 101%

CN1CCN(C2=Nc3ccccc3Oc3ccc(Cl)cc32)CC1 [Loxapine, 2-Chloro-11-(4-methylpiperazin-1-yl)dibenzo[b,f][1,4]oxazepine]
inhibition at 10 µM (Isdop2): 93% | Toxicity to Aedes aegypti larvae (mortality) 24 hours (Ae. aegypti L3 larvae [2]): 97% | mortality at 400 µM (Ae. aegypti L3 larvae [4]; 0.5 h, read-out: percent mortality 0.5 hr, 400 uM, L3 larvae, value for this scoring time): 30% | mortality at 400 µM (Ae. aegypti L3 larvae [4]; 1 h, read-out: percent mortality 1 hr, 400 uM, L3 larvae, per scoring time): 0% | mortality at 400 µM (Ae. aegypti L3 larvae [4]; 2 h, read-out: percent mortality 2 hr, 400 uM, L3 larvae, per scoring time): 30% | mortality at 400 µM (Ae. aegypti L3 larvae [4]; 3 h, read-out: mortality within three hours, 400 μM, L3 larvae): > 70% | mortality at 400 µM (Ae. aegypti L3 larvae [4]; 3 h, read-out: percent mortality 3 hr, 400 uM, L3 larvae, per scoring time): 0% | mortality at 400 µM (Ae. aegypti L3 larvae [4]; 4 h, read-out: percent mortality 4 hr, 400 uM, L3 larvae, per scoring time): 0% | mortality at 400 µM (Ae. aegypti L3 larvae [4]; 24 h, read-out: percent mortality 24 hr, 400 uM, L3 larvae, per scoring time): 0% | mortality at 400 µM (Ae. aegypti L3 larvae [4]; 48 h, read-out: Toxicity to Aedes aegypti larvae (mortality) 48 hours, 400 μM, L3 larvae, three independent experiments): 100% | mortality at 400 µM (Ae. aegypti L3 larvae [4]; 48 h, read-out: percent mortality 48 hr, 400 uM, L3 larvae, per scoring time): 0% | mortality at 400 µM (Ae. aegypti L3 larvae [4]; 72 h, read-out: Cumulative % Mortality (72 hrs), 400 uM, L3 larvae): 100% | mortality at 400 µM (Ae. aegypti L3 larvae [4]; 72 h, read-out: Toxicity to Aedes aegypti larvae (mortality) 72 hours, 400 μM, L3 larvae, three independent experiments): 100% | mortality at 400 µM (Ae. aegypti L3 larvae [4]; 72 h, read-out: percent mortality 72 hr, 400 uM, L3 larvae, per scoring time): 0% | % of the SCH23390 effect (AaDOP2 [5]): 97% | % inhibition of DA activity (Aedes cell-based assay screen) (AaDOP2 [5]): 97%

CCCN(CCC)CCc1ccc(O)c(O)c1 [Dipropyldopamine]
% of DHX (AaDOP2 [1]; [8]): 38%

Nn1nnc2ccccc21 [1-Aminobenzotriazole]
% of DHX (AaDOP2 [1]; [8]): 75%

C=CCN1CCc2cccc3c2[C@H]1Cc1ccc(O)c(O)c1-3 [R(−)-N-Allyl-NPA]
% of DHX (AaDOP2 [1]; [8]): 56%

Br.Cc1cccc(C2CN(C)CCc3c2cc(O)c(O)c3Cl)c1 (centres unmarked) [SKF 83959]
% Inhibition (of response to dopamine), Isdop2 screen (Isdop2): 87% | % of DHX (AaDOP2 [1]; [8]): 30%

CNC[C@H](O)c1ccc(O)c(O)c1 (racemic) [(±)-Epinephrine]
% of DHX (AaDOP2 [1]): 81%

C=CCN1CCc2c(cc(O)c(O)c2Cl)C(c2ccccc2)C1 (racemic) [(±)-Chloro-APB]
% of DHX (AaDOP2 [1]; [8]): 105%

CC1=C[C@@H]2c3cccc4[nH]cc(c34)C[C@H]2N(C)C1 [Agroclavine]
% of DHX (AaDOP2 [1]; [8]): 93%

COC(=O)N(C(=O)N1CO[C@@]2(C(=O)OC)Cc3cc(Cl)ccc3C2=N1)c1ccc(OC(F)(F)F)cc1 [Indoxacarb]
% Mortality 24 hrs [6]: 50% | % Mortality 48 hrs [6]: 50% | % Mortality 72 hrs [6]: 70% | % Mortality 120 hrs [6]: 100% | % Mortality 240 hrs [6]: 100% | % Mortality 24 hrs [7]: 63% | % Mortality 48 hrs [7]: 63% | % Mortality 72 hrs [7]: 80% | % Mortality 120 hrs [7]: 100%
